Values after ≈ are worked out from the molar mass of the structure shown. Active and inactive are the calls of the source. No cut-off for these calls is given here.

In assay [1] the test system is Candida albicans. The assay is described as follows: Antifungal activity against Candida albicans MTCC 227 assessed as growth inhibition after 24 hr by agar well diffusion method. Type of assay: functional. The settings on record: MTCC 227, 24 h.
Assay [2] has as its system Saccharomyces cerevisiae. The assay is described as follows: Antifungal activity against Saccharomyces cerevisiae MTCC 170 assessed as growth inhibition after 24 hr by agar well diffusion method. Particulars: MTCC 170, 24 h. Type of assay: functional. On the technique in general: Agar diffusion results depend on both activity and mobility in agar.
In assay [3] the test system is Bacillus subtilis. Nature of the assay: Antibacterial activity against Bacillus subtilis MTCC 121 assessed as growth inhibition after 24 hr by agar well diffusion method. It counts as functional. Particulars: MTCC 121, 24 h.
In assay [4] the test system is Staphylococcus aureus. Nature of the assay: Antibacterial activity against Staphylococcus aureus MTCC 96 assessed as growth inhibition after 24 hr by agar well diffusion method. It counts as functional. Particulars: MTCC 96, 24 h.
Assay [5] relates to Candida albicans. The assay is described as follows: Antifungal activity against Candida albicans MTCC 227 assessed as growth inhibition at 4 mg/mL after 24 hr by agar well diffusion method. Particulars: for zone of inhibition at 4000 µg/mL: MTCC 227, 24 h, read-out: DIZ. Type of assay: functional.
Assay [6] has as its system Saccharomyces cerevisiae. The assay is described as follows: Antifungal activity against Saccharomyces cerevisiae MTCC 170 assessed as growth inhibition at 4 mg/mL after 24 hr by agar well diffusion method. Type of assay: functional. Particulars: for zone of inhibition at 4000 µg/mL: MTCC 170, 24 h, read-out: DIZ.
In another assay the test system is Escherichia coli. The assay is described as follows: Antibacterial activity against Escherichia coli MTCC 1652 assessed as growth inhibition at 4 mg/mL after 24 hr by agar well diffusion method. It counts as functional, organism-based.
Assay [7] deals with Bacillus subtilis. The assay is described as follows: Antibacterial activity against Bacillus subtilis MTCC 121 assessed as growth inhibition at 4 mg/mL after 24 hr by agar well diffusion method. It counts as functional. The settings on record: MTCC 121, 24 h, read-out: DIZ.
Assay [8] concerns Staphylococcus aureus. The assay is described as follows: Antibacterial activity against Staphylococcus aureus MTCC 96 assessed as growth inhibition at 4 mg/mL after 24 hr by agar well diffusion method. Type of assay: functional. The settings on record: MTCC 96, 24 h, read-out: DIZ.
The subject of another assay is Pseudomonas aeruginosa. The assay is described as follows: microbe, parasite or virus in culture. Particulars: MTCC 741, 24 h, read-out: DIZ.

Description for Pseudomonas aeruginosa: Antibacterial activity against Pseudomonas aeruginosa MTCC 741 assessed as growth inhibition at 4 mg/mL after 24 hr by agar well diffusion method

As for `Cc1ccc(-c2cc(C(F)(F)F)c3c(-c4ccccc4)nn(-c4ccc(S(N)(=O)=O)cc4)c3n2)cc1`, the MIC (in general, the lowest concentration found to suppress growth) in the assay with Candida albicans [1] amounted to 64 µg/mL (≈ 126 µM); in the assay on Saccharomyces cerevisiae [2], 64 µg/mL (≈ 126 µM); in the assay with Bacillus subtilis [3], 64 µg/mL (≈ 126 µM); in the assay on Staphylococcus aureus [4] it was 32 µg/mL (≈ 62.9 µM). Also, the zone of inhibition at 4000 µg/mL in the assay with Candida albicans [5] worked out at 16.3 mm; in the assay on Saccharomyces cerevisiae [6], 15.6 mm; in the assay on Bacillus subtilis [7], 20.3 mm; in the assay on Staphylococcus aureus [8], 21.3 mm. Further, the “growth inhibition (GI)” value in the assay with Escherichia coli was “inactive”.
On to `Cc1ccc(-c2nn(-c3ccc(S(N)(=O)=O)cc3)c3nc(-c4ccc5ccccc5c4)cc(C(F)(F)F)c23)cc1`, for which the minimal inhibitory concentration (MIC) with Candida albicans [1] is 32 µg/mL (≈ 57.3 µM); in the assay on Saccharomyces cerevisiae [2], 32 µg/mL (≈ 57.3 µM); in the assay on Bacillus subtilis [3] it was 128 µg/mL (≈ 229 µM); in the assay on Staphylococcus aureus [4], 128 µg/mL (≈ 229 µM). The zone of inhibition at 4000 µg/mL in the assay on Candida albicans [5] is 18.3 mm; in the assay on Saccharomyces cerevisiae [6], 15.6 mm; in the assay with Bacillus subtilis [7], 15.6 mm; in the assay on Staphylococcus aureus [8], 15.6 mm. The “growth inhibition (GI)” value in the assay with Escherichia coli is “inactive”.
As to `Cc1cc(C(F)(F)F)c2c(-c3ccccc3)nn(-c3ccc(S(N)(=O)=O)cc3)c2n1`, the minimum inhibitory concentration (MIC) with Candida albicans [1], with Saccharomyces cerevisiae [2], in the assay with Bacillus subtilis [3] and in the assay with Staphylococcus aureus [4] was 64 µg/mL (≈ 148 µM) each time. For the same compound, the zone of inhibition at 4000 µg/mL amounted to 16.3 mm in the assay with Candida albicans [5], 15.3 mm in the assay with Saccharomyces cerevisiae [6], 20.3 mm in the assay with Bacillus subtilis [7] and 19.3 mm in the assay with Staphylococcus aureus [8]. In addition, in the assay on Escherichia coli, the “growth inhibition (GI)” value is “inactive”.
Take `NS(=O)(=O)c1ccc(-n2nc(-c3ccccc3)c3c(C(F)(F)F)cc(-c4ccc(Br)cc4)nc32)cc1`: the minimum inhibitory concentration (MIC) is above 256 µg/mL with Candida albicans [1], 256 µg/mL (≈ 446 µM) in the assay with Saccharomyces cerevisiae [2], 64 µg/mL (≈ 112 µM) in the assay with Bacillus subtilis [3] and 64 µg/mL (≈ 112 µM) in the assay with Staphylococcus aureus [4]. Further, the zone of inhibition at 4000 µg/mL with Candida albicans [5] was 13.6 mm; in the assay with Saccharomyces cerevisiae [6], 14.6 mm; with Bacillus subtilis [7], 17.6 mm; in the assay with Staphylococcus aureus [8] it was 18.3 mm. For the same compound, the “growth inhibition (GI)” value with Escherichia coli is “inactive”.
Regarding `NS(=O)(=O)c1ccc(-n2nc(-c3ccccc3)c3c(C(F)(F)F)cc(C(F)(F)F)nc32)cc1`, the MIC came to 64 µg/mL (≈ 132 µM) in the assay on Candida albicans [1], 128 µg/mL (≈ 263 µM) with Saccharomyces cerevisiae [2], 32 µg/mL (≈ 65.8 µM) with Bacillus subtilis [3] and 32 µg/mL (≈ 65.8 µM) with Staphylococcus aureus [4]. In addition, the zone of inhibition at 4000 µg/mL in the assay on Candida albicans [5] was found to be 15.6 mm; in the assay on Saccharomyces cerevisiae [6] it was 14.6 mm; in the assay on Bacillus subtilis [7], 21.6 mm; in the assay with Staphylococcus aureus [8] it was 22.6 mm. In addition, in the assay on Escherichia coli, the “growth inhibition (GI)” value was “inactive”.
On to `NS(=O)(=O)c1ccc(-n2nc(-c3ccccc3)c3c(C(F)(F)F)cc(-c4ccc(F)cc4)nc32)cc1`, for which the MIC was 128 µg/mL (≈ 250 µM) in the assay with Candida albicans [1], 64 µg/mL (≈ 125 µM) in the assay with Saccharomyces cerevisiae [2], 64 µg/mL (≈ 125 µM) in the assay with Bacillus subtilis [3] and 128 µg/mL (≈ 250 µM) in the assay on Staphylococcus aureus [4]. Also, the zone of inhibition at 4000 µg/mL in the assay with Candida albicans [5] was 14.6 mm; in the assay on Saccharomyces cerevisiae [6], 15.3 mm; in the assay on Bacillus subtilis [7], 19.6 mm; in the assay on Staphylococcus aureus [8] it was 17.6 mm. Also, the “growth inhibition (GI)” value in the assay on Escherichia coli was “inactive”.
Take `NS(=O)(=O)c1ccc(-n2nc(-c3ccc(Cl)cc3)c3c(C(F)(F)F)cc(C(F)(F)F)nc32)cc1`: the minimal inhibitory concentration (MIC) was determined as 64 µg/mL (≈ 123 µM) with Candida albicans [1], 64 µg/mL (≈ 123 µM) in the assay with Saccharomyces cerevisiae [2], 128 µg/mL (≈ 246 µM) in the assay with Bacillus subtilis [3] and 128 µg/mL (≈ 246 µM) in the assay with Staphylococcus aureus [4]. The zone of inhibition at 4000 µg/mL with Candida albicans [5] turned out to be 16.3 mm; in the assay on Saccharomyces cerevisiae [6], 14.6 mm; with Bacillus subtilis [7], 15.6 mm; with Staphylococcus aureus [8], 16.3 mm. Moreover, the “growth inhibition (GI)” value in the assay on Escherichia coli was “inactive”.
For `C[C@@H]1[C@H](O)[C@@H](C)/C=C/C=C/C=C/C=C/C=C/C=C/C=C/[C@H](O[C@@H]2O[C@H](C)[C@@H](O)[C@H](N)[C@@H]2O)C[C@@H]2O[C@](O)(C[C@@H](O)C[C@@H](O)[C@H](O)CC[C@@H](O)C[C@@H](O)CC(=O)O[C@H]1C)C[C@H](O)[C@H]2C(=O)O` [AMPHOTERICIN B], the MIC in the assay with Candida albicans [1] and with Saccharomyces cerevisiae [2] was 20 µg/mL (≈ 21.6 µM) each time. Moreover, the figures for the zone of inhibition at 4000 µg/mL in the assay on Candida albicans [5] and in the assay on Saccharomyces cerevisiae [6] were 16.6 mm and 19.3 mm, respectively.
For the compound `O=C(O)c1cn(C2CC2)c2cc(N3CCNCC3)c(F)cc2c1=O` [CIPROFLOXACIN], the minimal inhibitory concentration (MIC) in the assay on Bacillus subtilis [3] and in the assay on Staphylococcus aureus [4] was 5 µg/mL (≈ 15.1 µM) throughout. In addition, the zone of inhibition at 4000 µg/mL in the assay with Bacillus subtilis [7] was 24 mm; in the assay on Staphylococcus aureus [8] it was 26.6 mm; in the assay on Pseudomonas aeruginosa, 22 mm.
For `NS(=O)(=O)c1ccc(-n2nc(-c3ccccc3)c3c(C(F)(F)F)cc(-c4ccccc4)nc32)cc1`, the MIC in the assay with Candida albicans [1] stood at 64 µg/mL (≈ 129 µM); with Saccharomyces cerevisiae [2], 64 µg/mL (≈ 129 µM); in the assay on Bacillus subtilis [3], 128 µg/mL (≈ 259 µM); in the assay with Staphylococcus aureus [4], 64 µg/mL (≈ 129 µM). In addition, the zone of inhibition at 4000 µg/mL in the assay with Candida albicans [5] was 15.3 mm; in the assay on Saccharomyces cerevisiae [6], 16.3 mm; in the assay on Bacillus subtilis [7] it was 17 mm; with Staphylococcus aureus [8], 18.6 mm. Moreover, the “growth inhibition (GI)” value in the assay on Escherichia coli was “inactive”.
`COc1ccc(-c2cc(C(F)(F)F)c3c(-c4ccccc4)nn(-c4ccc(S(N)(=O)=O)cc4)c3n2)cc1`: the MIC with Candida albicans [1] amounted to 128 µg/mL (≈ 244 µM); in the assay with Saccharomyces cerevisiae [2], 256 µg/mL (≈ 488 µM); with Bacillus subtilis [3], 32 µg/mL (≈ 61 µM); with Staphylococcus aureus [4], 64 µg/mL (≈ 122 µM). For the same compound, the zone of inhibition at 4000 µg/mL came out at 15.6 mm in the assay on Candida albicans [5], 14.6 mm in the assay on Saccharomyces cerevisiae [6], 21.6 mm in the assay with Bacillus subtilis [7] and 19.3 mm in the assay on Staphylococcus aureus [8]. Further, the “growth inhibition (GI)” value with Escherichia coli is “inactive”.
For `NS(=O)(=O)c1ccc(-n2nc(-c3ccccc3)c3c(C(F)(F)F)cc(-c4ccc(Cl)cc4)nc32)cc1`, the MIC with Bacillus subtilis [3] and in the assay with Staphylococcus aureus [4] was 128 µg/mL (≈ 242 µM) each time. Moreover, the “growth inhibition (GI)” value in the assay with Candida albicans [5], with Saccharomyces cerevisiae [6] and in the assay with Escherichia coli was “inactive” throughout. The zone of inhibition at 4000 µg/mL in the assay with Bacillus subtilis [7] was determined as 16.3 mm; with Staphylococcus aureus [8], 15 mm.

Source of the values: ChEMBL document CHEMBL3045429, “Exploration of antimicrobial potential of pyrazolo[3,4-b]pyridine scaffold bearing benzenesulfonamide and trifluoromethyl moieties” (2013).
